Source: patent publication US12391683B2, “Therapeutic compounds and methods” (Actio Biosciences, Inc., priority 2022, dated 2025)
pEC50, pIC50: −log10 of the molar value.

What was measured:
[1] = target: T1, TRPM4 channels (Homo sapiens, UniProt Q8TD43); experiment: TRP Family FLIPR Assay, TRPM4; format: cell-based; details: CHO cells
T1 construct: expressed in transfected cells; host or cells: CHO
Procedure: (§1) The compound of Example 5 was tested for selectivity against a panel of Human TRP family ion channels in a TRP Family FLIPR Assay as described below. • 1. TRPC3 channels (human TRPC3 variant 1 gene, expressed in HEK293 cells). • 2. TRPC4 channels (human TRPC4 gene, expressed in HEK293 cells). • 3. TRPC5 channels (human TRPC5 gene, expressed in HEK293 cells). • 4. TRPC6 channels (human TRPC6 gene, expressed in HEK293 cells). • 5. TRPM2 channels (human TRPM2 gene, transiently expressed in HEK293 cells). • 6. TRPM3 channels (human TRPM3 gene, transiently expressed in HEK293 cells). • 7. TRPM4 channels (human TRPM4 gene, expressed in CHO cells). • 8. […]
(§2) Data acquisition was performed via the FLIPR Control software supplied with the FLIPR System (MDS-AT) and data was analyzed using Microsoft Excel (Microsoft Corp., Redmond, WA) or GraphPad Prism. […]
(§3) [formula] where Base is the response at low concentrations of test article, Max is the maximum response at high concentrations, xhalf the EC50, or IC50, the concentration of test article producing either half-maximal activation or inhibition, and rate is the Hill coefficient. […] No assumptions about the fit parameters was made; the fit parameters were determined by the algorithm.
(§4) The effect of each test article was evaluated at eight (8) concentrations: 0.003, 0.01, 0.03, 0.1, 0.3, 1, 3 and 10 μM, n≤4 wells/concentration). […]

[2] = target: T2, TRPM5 channels (Homo sapiens, UniProt Q9NZQ8); experiment: TRP Family FLIPR Assay, TRPM5; format: cell-based; details: CHO cells
T2 construct: expressed in transfected cells; host or cells: CHO
T2 sequence (Q9NZQ8 1-1165): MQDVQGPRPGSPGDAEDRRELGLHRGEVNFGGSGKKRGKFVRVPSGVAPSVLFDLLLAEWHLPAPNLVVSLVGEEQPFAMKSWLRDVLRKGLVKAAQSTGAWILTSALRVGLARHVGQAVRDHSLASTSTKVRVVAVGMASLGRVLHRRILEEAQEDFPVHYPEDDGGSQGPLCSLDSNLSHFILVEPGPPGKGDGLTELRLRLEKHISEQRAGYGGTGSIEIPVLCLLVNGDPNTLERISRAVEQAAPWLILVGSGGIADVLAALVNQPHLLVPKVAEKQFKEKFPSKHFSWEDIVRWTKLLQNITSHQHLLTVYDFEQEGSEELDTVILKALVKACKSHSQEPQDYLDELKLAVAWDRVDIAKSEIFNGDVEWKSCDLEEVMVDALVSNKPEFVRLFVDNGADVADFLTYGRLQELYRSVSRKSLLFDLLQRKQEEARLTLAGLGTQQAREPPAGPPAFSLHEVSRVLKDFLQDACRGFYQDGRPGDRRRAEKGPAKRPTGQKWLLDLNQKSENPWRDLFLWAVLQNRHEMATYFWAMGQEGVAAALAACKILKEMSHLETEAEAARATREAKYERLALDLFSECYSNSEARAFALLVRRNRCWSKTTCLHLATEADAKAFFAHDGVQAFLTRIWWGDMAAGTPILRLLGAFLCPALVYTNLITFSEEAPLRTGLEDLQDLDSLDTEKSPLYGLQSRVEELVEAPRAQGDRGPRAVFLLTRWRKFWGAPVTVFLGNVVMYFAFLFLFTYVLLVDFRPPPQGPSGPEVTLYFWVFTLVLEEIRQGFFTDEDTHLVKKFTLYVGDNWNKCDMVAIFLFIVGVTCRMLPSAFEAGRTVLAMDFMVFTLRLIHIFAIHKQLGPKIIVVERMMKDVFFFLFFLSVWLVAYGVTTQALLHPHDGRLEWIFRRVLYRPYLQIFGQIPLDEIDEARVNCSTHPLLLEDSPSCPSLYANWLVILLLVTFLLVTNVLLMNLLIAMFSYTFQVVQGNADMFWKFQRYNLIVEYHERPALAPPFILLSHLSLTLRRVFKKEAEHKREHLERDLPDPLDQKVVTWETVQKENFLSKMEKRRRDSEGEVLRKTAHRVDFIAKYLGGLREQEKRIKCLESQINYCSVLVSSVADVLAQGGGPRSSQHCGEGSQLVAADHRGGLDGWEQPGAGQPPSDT
Procedure: as §1, §2, §3, §4

T1 sequence (Q8TD43 whole entry): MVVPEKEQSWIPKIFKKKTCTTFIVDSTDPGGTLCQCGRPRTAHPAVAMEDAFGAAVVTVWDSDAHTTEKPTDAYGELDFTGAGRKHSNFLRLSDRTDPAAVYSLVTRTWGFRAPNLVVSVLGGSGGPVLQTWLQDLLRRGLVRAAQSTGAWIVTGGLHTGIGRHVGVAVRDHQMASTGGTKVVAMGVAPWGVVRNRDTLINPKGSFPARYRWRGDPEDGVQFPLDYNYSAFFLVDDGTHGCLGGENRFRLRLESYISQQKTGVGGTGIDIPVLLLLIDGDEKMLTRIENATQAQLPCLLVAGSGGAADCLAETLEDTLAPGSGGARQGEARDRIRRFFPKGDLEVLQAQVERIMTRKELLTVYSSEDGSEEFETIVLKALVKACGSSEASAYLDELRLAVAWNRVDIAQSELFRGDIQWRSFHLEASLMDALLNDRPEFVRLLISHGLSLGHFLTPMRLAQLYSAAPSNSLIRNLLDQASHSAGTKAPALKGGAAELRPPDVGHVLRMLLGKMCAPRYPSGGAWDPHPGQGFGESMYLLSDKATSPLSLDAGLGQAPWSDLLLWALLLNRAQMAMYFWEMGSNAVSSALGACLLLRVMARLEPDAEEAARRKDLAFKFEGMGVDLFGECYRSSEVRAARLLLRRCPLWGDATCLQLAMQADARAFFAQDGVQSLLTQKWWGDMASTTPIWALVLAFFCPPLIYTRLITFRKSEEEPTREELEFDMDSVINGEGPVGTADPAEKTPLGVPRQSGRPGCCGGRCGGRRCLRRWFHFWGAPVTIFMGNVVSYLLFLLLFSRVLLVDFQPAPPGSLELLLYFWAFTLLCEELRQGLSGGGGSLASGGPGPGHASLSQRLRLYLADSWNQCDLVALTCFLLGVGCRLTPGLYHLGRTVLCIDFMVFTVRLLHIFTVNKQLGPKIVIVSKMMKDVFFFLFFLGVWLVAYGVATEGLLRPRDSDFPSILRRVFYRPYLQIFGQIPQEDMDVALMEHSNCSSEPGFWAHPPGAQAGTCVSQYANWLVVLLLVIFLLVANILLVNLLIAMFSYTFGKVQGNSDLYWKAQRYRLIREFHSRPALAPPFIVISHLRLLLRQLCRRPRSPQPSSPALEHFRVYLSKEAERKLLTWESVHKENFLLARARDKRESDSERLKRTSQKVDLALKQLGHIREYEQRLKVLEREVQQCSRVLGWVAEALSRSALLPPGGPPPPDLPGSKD

CC(C)(O)c1cnc(N2C[C@@]3(CC[C@@H](F)[C@](C)(Cn4cnc5ccc(C#N)cc54)C3)OC2=O)cn1 (single isomer, unassigned) [Example 5]
< 5.00: pEC50 ([1]; agonist mode, vs EMAX of A23187 3.3 μM, read-out: EC50 hTRMP4) | pIC50 ([1]; antagonist mode, activated with A23187 10 μM, 0.003-10 μM, read-out: IC50 hTRMP4) | pEC50 ([2]; agonist mode, vs EMAX of Mg-ATP 33.3 μM, read-out: EC50 hTRPM5) | pIC50 ([2]; antagonist mode, activated with Mg-ATP 75 μM, 0.003-10 μM, read-out: IC50 hTRPM5)
